Data: PMC11089505, “Structural Elucidation and Antiviral Activity of Covalent Cathepsin L Inhibitors” (Journal of Medicinal Chemistry, 2024)
Where “and” joins values, the source holds several entries; their conditions need not be identical. Identical values can stand only once.

Test system: SARS-CoV-2 Omicron variant BA.1 in Vero E6 cells
Assay: microbe, parasite or virus in culture
Type: cell-based

CCC(CC)COC(=O)[C@H](C)N[P@](=O)(OC[C@H]1O[C@@](C#N)(c2ccc3c(N)ncnn23)[C@H](O)[C@@H]1O)Oc1ccccc1 [Remdesivir]
% RNA (qRT-PCR): 124.5% and 63.1%

CCCC(NC(=O)C(CC(C)C)NC(=O)OCc1ccccc1)C(=O)C(=O)NCc1ccccn1 (stereo not drawn) [CI-XII, Benzyl N-[1-[[1.2-dioxo-1-(pyridin-2-ylmethylamino)hexan-3-yl]amino]-4-methyl-1-oxopentan-2-yl]carbamate]
reduction of quantity of viral RNA: more than 50% | EC50 (Severe acute respiratory syndrome coronavirus 2, Vero C1008, 24 h, read-out: EC50 (qRT-PCR)): < 100 nM
